{
  "source": "paper PMC3265362",
  "about": "(Biochemical Journal, 2008)",
  "molecules": {"B1": {"name": "human QR2 (quinone reductase 2), P16083 1-231 (enzyme)", "chain": "MAGKKVLIVYAHQEPKSFNGSLKNVAVDELSRQGCTVTVSDLYAMNLEPRATDKDITGTLSNPEVFNYGVETHEAYKQRSLASDITDEQKKVREADLVIFQFPLYWFSVPAILKGWMDRVLCQGFAFDIPGFYDSGLLQGKLALLSVTTGGTAEMYTKTGVNGDSRYFLWPLQHGTLHFCGFKVLAPQISFAPEIASEEERKGMVAAWSQRLQTIWKEEPIPCTAHWHFGQ"}},
  "key": {"human QR2 [1]": {"biological_target": "T1, human QR2 (Homo sapiens, UniProt P16083)", "T1 sequence (P16083 1-231)": "B1 chain", "experiment": "ITC", "assay_type": "binding", "settings": "for ΔG / −TΔS / ΔH: single-site binding model; for ΔH: 50 mM Hepes pH 7.5, 100 mM NaCl, 1 mM TCEP"}, "human QR2 [2]": {"biological_target": "T1, human QR2", "experiment": "Steady-state kinetics, mechanism of inhibition of QR2", "assay_type": "biochemical", "settings": "fixed NMeH 100 μM, various menadione"}, "human QR2 [3]": {"biological_target": "T1, human QR2", "settings": "read-out: IC50 value, Mammalian cells; cytosolic fraction of mammalian cell lines overexpressing human QR2, dihydrobenzylnicotinamide as co-substrate; ref [37]; cited from earlier work"}, "[4]": {"biological_target": "T2, human QR2 (quinone reductase 2) (human), P16083", "T2 chain": "B1 chain", "experiment": "crystal structure", "settings": "remark: other sources report otherwise"}},
  "note": "Where “and” joins values, the source holds several entries; their conditions need not be identical. Equal entries are not always repeated.",
  "data": [
    {"molecule": "COc1ccc2[nH]c(I)c(CCNC(C)=O)c2c1", "note": "[2-Iodomelatonin]", "values": [
      {"measurement": "h (Hill coefficient, a measure of the stoichiometry of binding)", "setting": "human QR2 [1]", "value": 0.8},
      {"measurement": "ΔG", "setting": "human QR2 [1]", "value": "-8.5 ± 0.38", "unit": "kcal/mol"},
      {"measurement": "−TΔS", "setting": "human QR2 [1]", "value": "-0.65 ± 0.24", "unit": "kcal/mol"},
      {"measurement": "ΔH", "setting": "human QR2 [1]", "value": "-7.85 ± 0.62", "unit": "kcal/mol"},
      {"measurement": "ΔH", "setting": "human QR2 [1]; listed as 2-iodomelatonin", "value": -7.85, "unit": "kcal/mol"}
    ]},
    {"molecule": "COc1ccc2[nH]cc(CCNC(C)=O)c2c1", "note": "[Melatonin]", "values": [
      {"measurement": "h (Hill coefficient, a measure of the stoichiometry of binding)", "setting": "human QR2 [1]", "value": 0.8},
      {"measurement": "ΔG", "setting": "human QR2 [1]", "value": "-8.07 ± 0.3", "unit": "kcal/mol"},
      {"measurement": "−TΔS", "setting": "human QR2 [1]", "value": "2.38 ± 0.11", "unit": "kcal/mol"},
      {"measurement": "ΔH", "setting": "human QR2 [1]", "value": "-10.45 ± 0.4", "unit": "kcal/mol"},
      {"measurement": "ΔH", "setting": "human QR2 [1]; listed as melatonin", "value": -10.45, "unit": "kcal/mol"},
      {"measurement": "Ki (uncompetitive against menadione)", "setting": "human QR2 [2]", "value": "92 µM and 91.6 ± 4.6 µM"}
    ]},
    {"molecule": "CC(=O)NCCc1c[nH]c2ccc(O)cc12", "note": "[N-Acetyl-5-hydroxytryptamine]", "values": [
      {"measurement": "IC50", "setting": "human QR2 [3]", "value": "99 ± 14", "unit": "µM"}
    ]},
    {"molecule": "Oc1ccc(/C=C/c2cc(O)cc(O)c2)cc1", "note": "[Resveratrol]", "values": [
      {"measurement": "h (Hill coefficient, a measure of the stoichiometry of binding)", "setting": "human QR2 [1]", "value": 0.9},
      {"measurement": "ΔG", "setting": "human QR2 [1]", "value": "-9.8 ± 0.50", "unit": "kcal/mol"},
      {"measurement": "−TΔS", "setting": "human QR2 [1]", "value": "5.01 ± 0.61", "unit": "kcal/mol"},
      {"measurement": "ΔH", "setting": "human QR2 [1]", "value": "-14.6 ± 0.15", "unit": "kcal/mol"}
    ]},
    {"molecule": "B1", "values": [
      {"measurement": "stoichiometry N", "setting": "[4]", "value": 2}
    ]}
  ]
}
